Source: patent US20140073639A1 (priority 2012, published 2014)
In brackets after ≈: the same amount, converted by molar mass.

Experiments:
[1] = type: cell-based
[2] = system: S. MRSA; experiment: microbe, parasite or virus in culture; type: cell-based; conditions: for inhibition at 10 µM / inhibition at 30 µM / inhibition at 3 µM: Staphylococcus aureus, MRSA; for inhibition at 10 µM: read-out: S. MRSA 10 μM (growth inhibition); for inhibition at 30 µM: read-out: S. MRSA 30 μM (growth inhibition); for inhibition at 3 µM: read-out: S. MRSA 3 μM (growth inhibition)
[3] = system: B. Anthracis; experiment: microbe, parasite or virus in culture; type: cell-based; conditions: for inhibition at 10 µM / inhibition at 30 µM / inhibition at 3 µM: Bacillus anthracis; for inhibition at 10 µM: read-out: B. Anthracis 10 μM (growth inhibition); for inhibition at 30 µM: read-out: B. Anthracis 30 μM (growth inhibition); for inhibition at 3 µM: read-out: B. Anthracis 3 μM (growth inhibition)

Row | SMILES | MIC, 25% Serum [1] [µM] | MIC, No Serum [1] [µM] | inhibition at 10 µM ([2]; 10 μM) [%] | inhibition at 30 µM ([2]; 30 μM) [%] | inhibition at 10 µM ([3]; 10 μM) [%] | inhibition at 30 µM ([3]; 30 μM) [%] | inhibition at 3 µM ([2]; 3 μM) [%] | inhibition at 3 µM ([3]; 3 μM) [%] | S. MRSA 3 μM (growth inhibition) ([2]; 3 μM) | S. MRSA 10 μM (growth inhibition) ([2]; 10 μM) | S. MRSA 30 μM (growth inhibition) ([2]; 30 μM) | B. Anthracis 3 μM (growth inhibition) ([3]; 3 μM) | B. Anthracis 10 μM (growth inhibition) ([3]; 10 μM) | B. Anthracis 30 μM (growth inhibition) ([3]; 30 μM)
1 | O=C1Nc2ccc(Br)cc2/C1=C1/NC(=S)N(C(Cc2ccccc2)C(=O)O)C1=O (centres unmarked) [Cmpd 31] | >250 | 250 (≈ 118 µg/mL) | -8 | -2.22 | 2.5 | 88 |  |  |  |  |  |  |  | 
2 | O=C1Nc2cc(Cl)c(Br)cc2/C1=C1/NC(=S)N(C(Cc2ccccc2)C(=O)O)C1=O (centres unmarked) [Cmpd 32] | >250 |  | -19.4 | 93.8 | 40.2 | 98.8 | -11.9 | 11.3 |  |  |  |  |  | 
3 | O=C(O)C(Cc1ccccc1)N1C(=O)/C(=C\c2ccc(-c3ccc(Cl)cc3)o2)NC1=S (centres unmarked) [Cmpd 38] | >250 | 62.5 (≈ 28.3 µg/mL) | -16.9 | 86.6 | 68.9 | 99.7 | -13.5 | 4.99 |  |  |  |  |  | 
4 | CCC(C(=O)O)N1C(=O)/C(=C\c2ccc(-c3ccc(Cl)c(Cl)c3)o2)NC1=S (centres unmarked) [Cmpd 44] | >250 | 250 (≈ 106 µg/mL) | 4.53 | 92.9 | 97.2 | 94 | -2.47 | 4.13 |  |  |  |  |  | 
5 | O=C(O)C(Cc1ccccc1)N1C(=O)/C(=C\c2ccc(-c3ccc(Cl)c(Cl)c3)o2)NC1=S (centres unmarked) [Cmpd 46] | >250 | 15.6 (≈ 7.6 µg/mL) |  |  |  |  |  |  | −17.39 | 93.71 | 103.37 | 108.4 | 108.46 | 106.96
6 | O=C(O)[C@@H](Cc1ccccc1)N1C(=O)/C(=C\c2ccc(-c3ccc(Cl)c(Cl)c3)o2)NC1=S [Cmpd 47] | 250 (≈ 122 µg/mL) | 7.8 (≈ 3.8 µg/mL) | 84.4 | 103 | 107 | 107 | -13.8 | 9.41 |  |  |  |  |  | 
7 | O=C(O)[C@H](Cc1ccccc1)N1C(=O)/C(=C\c2ccc(-c3ccc(Cl)c(Cl)c3)o2)NC1=S [Cmpd 48] | 250 (≈ 122 µg/mL) | 7.8 (≈ 3.8 µg/mL) | 80.6 | 104 | 108 | 107 | -16.1 | -0.39 |  |  |  |  |  | 
8 | CC(=O)C(Cc1ccccc1)N1C(=O)/C(=C2/C(=O)Nc3cc(Cl)c(Cl)cc32)NC1=S (centres unmarked) [Cmpd 49] |  |  | -20.3 | -26.3 | -7.49 | 97.2 | -7.73 | 1.73 |  |  |  |  |  | 
9 | O=C(O)C(Cc1ccccc1)N1C(=O)/C(=C\c2ccc(-c3ccc(Cl)c(Cl)c3)s2)NC1=S (centres unmarked) [Cmpd 50] |  |  | 14.3 | 35.6 | 108 | 94.2 | -14.6 | 1.03 |  |  |  |  |  | 
10 | O=C(O)[C@H](Cc1ccccc1)N1C(=O)/C(=C\c2ccc(-c3cc(Cl)cc(Cl)c3)o2)NC1=S [Cmpd 51] |  |  | -7.03 | 85.3 | -3.08 | 99.3 | -0.61 | -0.16 |  |  |  |  |  | 
11 | COc1ccc(-c2ccc(/C=C3/NC(=S)N([C@@H](Cc4ccccc4)C(=O)O)C3=O)o2)cc1Cl [Cmpd 52] | >250 | 62.5 (≈ 30.2 µg/mL) | -11.7 | 82.2 | 27.3 | 95.5 | -7.99 | -5.68 |  |  |  |  |  | 
12 | O=C(O)[C@H](Cc1ccccc1)N1C(=O)/C(=C\c2ccc(-c3cc(C(F)(F)F)ccc3Cl)o2)NC1=S [Cmpd 53] | >250 | 15.6 (≈ 8.13 µg/mL) | 92.3 | 92.9 | 95.5 | 92.5 | -4.72 | 88.2 |  |  |  |  |  | 
13 | NC(=O)C(Cc1ccccc1)N1C(=O)/C(=C\c2ccc(-c3ccc(Cl)c(Cl)c3)o2)NC1=S (centres unmarked) [Cmpd 54] | >250 | >250 | 30.1 | 57.5 | 94.8 | 93 | 2.03 | 20.6 |  |  |  |  |  | 
14 | CCOC(=O)C(Cc1ccccc1)N1C(=O)/C(=C\c2ccc(-c3ccc(Cl)c(Cl)c3)o2)NC1=S (centres unmarked) [Cmpd 55] | >250 | >250 | 0.57 | -2.92 | -50.8 | -6.41 |  |  |  |  |  |  |  | 
15 | CNC(=O)C(Cc1ccccc1)N1C(=O)/C(=C\c2ccc(-c3ccc(Cl)c(Cl)c3)o2)NC1=S (centres unmarked) [Cmpd 56] | >250 | >250 |  |  |  |  |  |  |  |  |  |  |  | 
16 | CS(=O)(=O)NC(=O)C(Cc1ccccc1)N1C(=O)/C(=C\c2ccc(-c3ccc(Cl)c(Cl)c3)o2)NC1=S (centres unmarked) [Cmpd 57] | >250 | 15.6 (≈ 8.81 µg/mL) | 30.9 | 58 | 96.4 | 90.2 | 3.18 | 45.2 |  |  |  |  |  | 
17 | O=C(NS(=O)(=O)C(F)(F)F)C(Cc1ccccc1)N1C(=O)/C(=C\c2ccc(-c3ccc(Cl)c(Cl)c3)o2)NC1=S (centres unmarked) [Cmpd 58] | >250 | 7.8 (≈ 4.82 µg/mL) | 81.7 | 94.5 | 98.7 | 97.4 | 0.23 | 69.4 |  |  |  |  |  | 
18 | O=C(O)C(Cc1ccccc1)N1C(=O)CNC1=S (centres unmarked) [Cmpd 61] | >250 | >250 |  |  |  |  |  |  |  |  |  |  |  | 
19 | O=C(O)C(Cc1ccccc1)N1C(=O)/C(=C\c2ccco2)NC1=S (centres unmarked) [Cmpd 62] | >250 | >250 |  |  |  |  |  |  |  |  |  |  |  | 
20 | O=C1NC(=S)N/C1=C/c1ccc(-c2ccc(Cl)c(Cl)c2)o1 [Cmpd 63] | >250 | 62.5 (≈ 21.2 µg/mL) |  |  |  |  |  |  |  |  |  |  |  | 
